Data taken from ChEMBL document CHEMBL4507273 (2021).

Tests used:
[1] = target: Dual specificity protein kinase CLK1 (Homo sapiens) (UniProt P49759); details: Compound concentration 1000.0 nM
[2] = target: Serine/threonine-protein kinase 24 (Homo sapiens) (UniProt Q9Y6E0); details: Compound concentration 1000.0 nM
[3] = target: 5-hydroxytryptamine receptor 1D (Homo sapiens, UniProt P28221); details: Compound concentration 10.0 uM
[4] = tested on: Tyrosine-protein kinase ABL1 (Homo sapiens), P00519 [H396P]; details: Compound concentration 1000.0 nM
[5] = target: TGF-beta receptor type-1 (Homo sapiens) (UniProt P36897); details: Compound concentration 1000.0 nM
[6] = target: Serine/threonine-protein kinase DCLK2 (Homo sapiens) (UniProt Q8N568); details: Compound concentration 1000.0 nM
Serine/threonine-protein kinase DCLK2 (Homo sapiens), sequence (Q8N568 whole entry): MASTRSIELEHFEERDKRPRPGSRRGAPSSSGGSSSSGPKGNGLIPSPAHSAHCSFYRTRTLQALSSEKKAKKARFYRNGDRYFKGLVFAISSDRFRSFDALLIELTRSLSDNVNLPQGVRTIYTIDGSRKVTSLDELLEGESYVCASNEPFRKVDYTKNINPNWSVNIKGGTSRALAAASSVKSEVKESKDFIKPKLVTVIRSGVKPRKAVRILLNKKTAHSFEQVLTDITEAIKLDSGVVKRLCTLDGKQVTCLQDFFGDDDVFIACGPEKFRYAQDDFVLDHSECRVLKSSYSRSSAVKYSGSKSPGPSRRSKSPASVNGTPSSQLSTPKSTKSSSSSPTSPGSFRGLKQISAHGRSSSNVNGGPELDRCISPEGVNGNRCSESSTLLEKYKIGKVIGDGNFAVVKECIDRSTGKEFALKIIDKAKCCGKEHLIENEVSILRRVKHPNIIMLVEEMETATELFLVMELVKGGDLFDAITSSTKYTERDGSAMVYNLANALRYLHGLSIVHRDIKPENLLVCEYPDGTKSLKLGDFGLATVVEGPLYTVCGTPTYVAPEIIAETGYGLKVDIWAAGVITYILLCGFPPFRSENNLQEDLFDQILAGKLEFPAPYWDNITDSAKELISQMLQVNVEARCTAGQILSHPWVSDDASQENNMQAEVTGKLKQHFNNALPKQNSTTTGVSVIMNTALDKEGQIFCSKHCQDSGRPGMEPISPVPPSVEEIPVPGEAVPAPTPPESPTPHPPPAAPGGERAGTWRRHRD

[7] = tested on: Receptor-type tyrosine-protein kinase FLT3 (Homo sapiens), P36888 [UNDEFINED MUTATION]; details: Compound concentration 1000.0 nM
Receptor-type tyrosine-protein kinase FLT3 (Homo sapiens), P36888 [UNDEFINED MUTATION], sequence (P36888 whole entry, looked up, change not shown): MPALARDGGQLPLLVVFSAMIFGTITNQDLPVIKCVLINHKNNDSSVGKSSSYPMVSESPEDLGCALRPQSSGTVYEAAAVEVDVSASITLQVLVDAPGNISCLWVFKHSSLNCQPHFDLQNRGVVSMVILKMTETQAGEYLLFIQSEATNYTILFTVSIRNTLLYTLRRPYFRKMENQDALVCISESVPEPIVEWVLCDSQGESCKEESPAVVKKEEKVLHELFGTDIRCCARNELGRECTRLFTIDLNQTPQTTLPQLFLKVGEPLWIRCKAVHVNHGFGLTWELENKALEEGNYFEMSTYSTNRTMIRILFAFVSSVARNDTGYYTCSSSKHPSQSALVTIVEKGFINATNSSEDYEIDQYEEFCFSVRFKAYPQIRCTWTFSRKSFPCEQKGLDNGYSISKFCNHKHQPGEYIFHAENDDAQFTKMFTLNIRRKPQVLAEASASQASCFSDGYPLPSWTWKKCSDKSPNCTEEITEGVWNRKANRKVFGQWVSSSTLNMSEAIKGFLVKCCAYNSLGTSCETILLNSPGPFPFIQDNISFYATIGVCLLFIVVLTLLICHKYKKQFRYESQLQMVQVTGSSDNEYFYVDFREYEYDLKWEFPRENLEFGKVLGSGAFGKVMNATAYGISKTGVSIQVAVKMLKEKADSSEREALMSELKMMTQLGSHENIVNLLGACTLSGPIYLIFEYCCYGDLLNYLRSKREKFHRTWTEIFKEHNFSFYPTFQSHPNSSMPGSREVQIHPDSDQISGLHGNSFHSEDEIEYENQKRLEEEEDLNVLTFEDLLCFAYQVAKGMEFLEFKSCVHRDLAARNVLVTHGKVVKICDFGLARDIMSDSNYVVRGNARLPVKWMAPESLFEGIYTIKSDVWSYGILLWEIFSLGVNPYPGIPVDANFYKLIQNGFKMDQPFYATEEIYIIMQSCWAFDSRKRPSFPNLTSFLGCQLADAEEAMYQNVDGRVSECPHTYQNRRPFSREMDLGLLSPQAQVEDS

[8] = target: D(1A) dopamine receptor (Homo sapiens, UniProt P21728); details: Compound concentration 10.0 uM
D(1A) dopamine receptor, sequence (P21728 whole entry): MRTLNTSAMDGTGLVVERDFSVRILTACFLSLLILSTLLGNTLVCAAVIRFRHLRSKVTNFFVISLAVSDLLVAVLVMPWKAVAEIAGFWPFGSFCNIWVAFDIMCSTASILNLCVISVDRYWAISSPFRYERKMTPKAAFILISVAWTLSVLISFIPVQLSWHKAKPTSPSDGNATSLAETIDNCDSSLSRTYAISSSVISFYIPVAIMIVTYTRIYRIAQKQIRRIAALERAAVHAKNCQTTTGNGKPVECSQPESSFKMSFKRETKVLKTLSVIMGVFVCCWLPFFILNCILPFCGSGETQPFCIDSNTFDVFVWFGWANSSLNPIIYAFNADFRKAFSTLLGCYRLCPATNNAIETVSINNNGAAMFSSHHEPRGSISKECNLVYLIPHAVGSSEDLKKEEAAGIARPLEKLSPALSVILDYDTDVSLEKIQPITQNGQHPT

[9] = target: Proto-oncogene tyrosine-protein kinase Src (Homo sapiens) (UniProt P12931); details: Compound concentration 1000.0 nM
[10] = target: Serine/threonine-protein kinase D3 (Homo sapiens) (UniProt O94806); details: Compound concentration 1000.0 nM
Serine/threonine-protein kinase D3 (Homo sapiens), sequence (O94806 whole entry): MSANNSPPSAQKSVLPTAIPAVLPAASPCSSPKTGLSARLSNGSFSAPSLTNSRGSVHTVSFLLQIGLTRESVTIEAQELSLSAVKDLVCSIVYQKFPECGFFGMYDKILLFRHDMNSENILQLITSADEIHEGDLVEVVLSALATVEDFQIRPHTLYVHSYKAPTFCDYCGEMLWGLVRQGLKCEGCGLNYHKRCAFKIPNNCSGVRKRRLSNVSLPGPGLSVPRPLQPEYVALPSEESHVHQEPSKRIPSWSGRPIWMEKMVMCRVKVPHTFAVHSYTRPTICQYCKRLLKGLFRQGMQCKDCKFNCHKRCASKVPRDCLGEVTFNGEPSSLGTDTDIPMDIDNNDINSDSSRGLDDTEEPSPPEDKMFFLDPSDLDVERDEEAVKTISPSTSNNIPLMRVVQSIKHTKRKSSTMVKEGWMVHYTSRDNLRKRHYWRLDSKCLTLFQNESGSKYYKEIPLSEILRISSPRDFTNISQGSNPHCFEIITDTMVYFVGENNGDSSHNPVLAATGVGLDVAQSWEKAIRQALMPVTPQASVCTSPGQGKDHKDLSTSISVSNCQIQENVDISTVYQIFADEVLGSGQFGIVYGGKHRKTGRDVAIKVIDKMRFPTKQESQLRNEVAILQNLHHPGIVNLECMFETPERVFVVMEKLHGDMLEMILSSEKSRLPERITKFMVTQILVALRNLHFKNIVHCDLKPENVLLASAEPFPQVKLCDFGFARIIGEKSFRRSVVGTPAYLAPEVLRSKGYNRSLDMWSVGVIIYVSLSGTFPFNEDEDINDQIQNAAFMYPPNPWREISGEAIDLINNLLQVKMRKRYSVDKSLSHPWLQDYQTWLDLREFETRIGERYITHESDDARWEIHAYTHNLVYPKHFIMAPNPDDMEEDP

[11] = target: Serine/threonine-protein kinase PAK 3 (Homo sapiens) (UniProt O75914); details: Compound concentration 1000.0 nM
Serine/threonine-protein kinase PAK 3 (Homo sapiens), sequence (O75914 whole entry, looked up): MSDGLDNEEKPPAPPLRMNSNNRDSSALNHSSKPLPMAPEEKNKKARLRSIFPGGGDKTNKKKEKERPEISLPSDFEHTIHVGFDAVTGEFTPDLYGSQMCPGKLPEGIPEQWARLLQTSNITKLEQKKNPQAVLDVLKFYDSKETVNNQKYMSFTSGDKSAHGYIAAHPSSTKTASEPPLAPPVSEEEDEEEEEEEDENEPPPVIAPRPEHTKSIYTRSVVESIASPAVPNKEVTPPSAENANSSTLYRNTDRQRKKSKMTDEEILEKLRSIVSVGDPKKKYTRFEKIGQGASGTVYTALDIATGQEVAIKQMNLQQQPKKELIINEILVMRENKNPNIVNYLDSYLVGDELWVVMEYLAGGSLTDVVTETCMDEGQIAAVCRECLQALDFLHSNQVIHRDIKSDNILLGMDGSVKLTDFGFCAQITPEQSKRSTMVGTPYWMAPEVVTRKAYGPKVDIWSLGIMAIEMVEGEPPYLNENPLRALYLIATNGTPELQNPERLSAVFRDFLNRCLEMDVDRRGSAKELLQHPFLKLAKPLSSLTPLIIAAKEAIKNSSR

[12] = target: Ribosomal protein S6 kinase alpha-3 (Homo sapiens) (UniProt P51812); details: Compound concentration 1000.0 nM
[13] = target: Hepatocyte growth factor receptor (Homo sapiens) (UniProt P08581); details: Compound concentration 1000.0 nM
[14] = tested on: Tyrosine-protein kinase ABL1 (Homo sapiens), P00519 [T315I]; details: Compound concentration 1000.0 nM
[15] = target: Cyclin-dependent kinase-like 2 (Homo sapiens) (UniProt Q92772); details: Compound concentration 1000.0 nM
[16] = target: Serine/threonine-protein kinase PLK1 (Homo sapiens) (UniProt P53350); details: Compound concentration 1000.0 nM
[17] = target: Serine/threonine-protein kinase B-raf (Homo sapiens) (UniProt P15056); details: Compound concentration 1000.0 nM
[18] = target: Aurora kinase A (Homo sapiens) (UniProt O14965); details: Compound concentration 1000.0 nM
[19] = target: Non-receptor tyrosine-protein kinase TNK1 (Homo sapiens) (UniProt Q13470); details: Compound concentration 1000.0 nM
Non-receptor tyrosine-protein kinase TNK1 (Homo sapiens), sequence (Q13470 whole entry): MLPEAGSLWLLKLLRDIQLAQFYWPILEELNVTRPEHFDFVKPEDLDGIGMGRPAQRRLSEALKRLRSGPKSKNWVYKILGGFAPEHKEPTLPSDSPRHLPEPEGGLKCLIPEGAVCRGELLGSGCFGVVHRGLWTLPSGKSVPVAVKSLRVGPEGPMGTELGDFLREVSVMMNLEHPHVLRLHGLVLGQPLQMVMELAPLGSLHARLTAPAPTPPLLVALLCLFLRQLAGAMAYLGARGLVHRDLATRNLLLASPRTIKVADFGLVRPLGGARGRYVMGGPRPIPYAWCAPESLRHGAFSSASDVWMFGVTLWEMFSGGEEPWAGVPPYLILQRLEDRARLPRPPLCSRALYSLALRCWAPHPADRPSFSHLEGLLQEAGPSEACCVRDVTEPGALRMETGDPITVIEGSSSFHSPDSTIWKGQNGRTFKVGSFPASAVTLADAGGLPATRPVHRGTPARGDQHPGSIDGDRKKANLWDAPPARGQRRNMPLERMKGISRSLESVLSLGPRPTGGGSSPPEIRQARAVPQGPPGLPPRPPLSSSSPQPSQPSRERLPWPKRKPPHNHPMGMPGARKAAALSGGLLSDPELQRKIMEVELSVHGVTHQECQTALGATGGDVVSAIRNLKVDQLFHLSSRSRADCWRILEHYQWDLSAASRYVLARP

[20] = target: Insulin-like growth factor 1 receptor (Homo sapiens) (UniProt P08069); details: Compound concentration 1000.0 nM
[21] = target: T1, 5-hydroxytryptamine receptor 1A (Homo sapiens, UniProt P08908); assay: GPCRScan assay: inhibition of 5-HT1A; set-up: radioligand conc. used [nm] 0.5 – 1.0, parental cells stable CHO
T1 sequence (P08908 whole entry): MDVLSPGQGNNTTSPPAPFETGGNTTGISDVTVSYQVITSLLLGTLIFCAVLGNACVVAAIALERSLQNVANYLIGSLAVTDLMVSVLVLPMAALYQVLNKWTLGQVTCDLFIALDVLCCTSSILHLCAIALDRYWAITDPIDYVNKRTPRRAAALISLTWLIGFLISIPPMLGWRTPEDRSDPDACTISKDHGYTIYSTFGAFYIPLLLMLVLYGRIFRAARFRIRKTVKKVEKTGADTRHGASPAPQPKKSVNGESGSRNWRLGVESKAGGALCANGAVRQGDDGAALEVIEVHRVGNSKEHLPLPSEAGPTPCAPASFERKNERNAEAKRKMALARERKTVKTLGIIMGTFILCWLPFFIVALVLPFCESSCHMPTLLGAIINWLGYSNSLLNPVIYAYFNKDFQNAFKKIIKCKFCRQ

[22] = target: Cyclin-dependent kinase 2 (Homo sapiens) (UniProt P24941); details: Compound concentration 1000.0 nM
[23] = target: Mitogen-activated protein kinase 3 (Homo sapiens) (UniProt P27361); details: Compound concentration 1000.0 nM
[24] = target: Calcium/calmodulin-dependent protein kinase type II subunit delta (Homo sapiens) (UniProt Q13557); details: Compound concentration 1000.0 nM
Calcium/calmodulin-dependent protein kinase type II subunit delta (Homo sapiens), sequence (Q13557 whole entry): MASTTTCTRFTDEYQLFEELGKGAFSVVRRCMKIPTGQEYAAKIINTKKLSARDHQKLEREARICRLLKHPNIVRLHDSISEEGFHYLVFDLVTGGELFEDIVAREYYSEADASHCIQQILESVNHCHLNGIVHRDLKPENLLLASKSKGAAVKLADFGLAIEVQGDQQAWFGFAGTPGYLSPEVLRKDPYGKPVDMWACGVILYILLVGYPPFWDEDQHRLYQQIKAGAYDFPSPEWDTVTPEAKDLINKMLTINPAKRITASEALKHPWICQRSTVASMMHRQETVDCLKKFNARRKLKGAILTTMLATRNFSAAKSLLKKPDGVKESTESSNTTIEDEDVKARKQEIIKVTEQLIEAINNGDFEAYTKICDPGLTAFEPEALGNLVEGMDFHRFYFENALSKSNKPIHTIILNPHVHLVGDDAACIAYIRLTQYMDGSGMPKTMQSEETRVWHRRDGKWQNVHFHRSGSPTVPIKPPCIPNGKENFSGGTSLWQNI

[25] = target: Dual specificity mitogen-activated protein kinase kinase 3 (Homo sapiens) (UniProt P46734); details: Compound concentration 1000.0 nM
[26] = tested on: Proto-oncogene tyrosine-protein kinase receptor Ret (Homo sapiens), P07949 [M918T]; details: Compound concentration 1000.0 nM
[27] = target: GABA-A receptor; anion channel (Rattus norvegicus) (UniProt O09028+P15431+P18506+P18508+P19969+P20236+P23574+P23576+P28471+P28473+P30191+P62813+P63079+P63138+Q91ZM7+Q9ES14); details: Compound concentration 10.0 uM
[28] = target: T2, Alpha-1D adrenergic receptor (Homo sapiens, UniProt P25100); assay: GPCRScan assay: inhibition of Alpha1D; set-up: radioligand conc. used [nm] 0.3 – 1.0, parental cells stable
T2 sequence (P25100 whole entry): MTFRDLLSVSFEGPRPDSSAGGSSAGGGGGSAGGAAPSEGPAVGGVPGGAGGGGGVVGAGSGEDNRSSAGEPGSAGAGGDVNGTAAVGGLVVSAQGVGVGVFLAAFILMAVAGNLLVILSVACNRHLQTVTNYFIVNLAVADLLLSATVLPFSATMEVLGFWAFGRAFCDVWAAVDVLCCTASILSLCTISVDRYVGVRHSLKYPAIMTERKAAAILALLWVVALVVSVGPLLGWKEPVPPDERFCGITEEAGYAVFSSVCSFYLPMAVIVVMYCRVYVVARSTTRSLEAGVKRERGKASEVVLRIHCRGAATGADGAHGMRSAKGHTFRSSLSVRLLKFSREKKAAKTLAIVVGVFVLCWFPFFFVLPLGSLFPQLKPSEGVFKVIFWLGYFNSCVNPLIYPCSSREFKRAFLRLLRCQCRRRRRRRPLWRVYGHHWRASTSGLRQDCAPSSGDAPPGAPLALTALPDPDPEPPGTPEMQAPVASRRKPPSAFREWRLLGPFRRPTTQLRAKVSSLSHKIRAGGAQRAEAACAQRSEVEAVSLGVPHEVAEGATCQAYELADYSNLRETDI

[29] = target: Casein kinase I isoform alpha-like (Homo sapiens) (UniProt Q8N752); details: Compound concentration 1000.0 nM
[30] = target: Phosphatidylinositol 3-kinase C2 domain-containing subunit gamma (Homo sapiens) (UniProt O75747); details: Compound concentration 1000.0 nM

| Compound | residual activity [1] | residual activity [2] | inhibition [3] | residual activity [4] | residual activity [5] | residual activity [6] | residual activity [7] | inhibition [8] | residual activity [9] | residual activity [10] | residual activity [11] | residual activity [12] | residual activity [13] | residual activity [14] | residual activity [15] | residual activity [16] | residual activity [17] | residual activity [18] | residual activity [19] | residual activity [20] | other results |
| --- | --- | --- | --- | --- | --- | --- | --- | --- | --- | --- | --- | --- | --- | --- | --- | --- | --- | --- | --- | --- | --- |
| CNCc1ccccc1-c1csc([C@@H](C)Nc2nc(C)nc3cc(OC)c(OC)cc23)c1 [BAY-293] | 98% | 100% | 98.1% | 78% | 74% | 99% | 48% | 82.7% | 100% | 92% | 86% | 80% | 95% | 100% | 99% | 80% | 100% | 73% | 64% | 100% | Ki ([21]; read-out: Ki): 3630 nM; Ki ([21]; read-out: pKi (converted)): 3350 nM; residual activity [22]: 82%; residual activity [23]: 94%; residual activity [24]: 99%; residual activity [25]: 80%; residual activity [26]: 70%; inhibition [27]: 0.89%; Ki ([28]; read-out: Ki): 338 nM; residual activity [29]: 100%; residual activity [30]: 59% |
| CNCc1ccccc1-c1csc([C@H](C)Nc2nc(C)nc3cc(OC)c(OC)cc23)c1 [BAY-294] | 95% | 100% | 98.9% | 89% | 80% | 100% | 81% | 89.2% | 100% | 100% | 87% | 100% | 100% | 95% | 100% | 85% | 97% | 73% | 85% | 100% | Ki ([21]; read-out: Ki): 391 nM; residual activity [22]: 91%; residual activity [23]: 100%; residual activity [24]: 97%; residual activity [25]: 98%; residual activity [26]: 99%; inhibition [27]: -1.27%; Ki ([28]; read-out: Ki): 397 nM; Ki ([28]; read-out: pKi (converted)): 389 nM; residual activity [29]: 100%; residual activity [30]: 100% |
